{"source": "patent US8138179B2", "about": "“Spiro-imidazo compounds” (Novartis AG, priority 2006, dated 2012)", "key": {"[1]": {"system": "plasma aldosterone", "experiment": "In vivo suppression of plasma aldosterone levels in ACTH-stimulated rats", "set-up": "species or system Wistar rats", "conditions": "4 mg/kg p.o.; plasma level 2 h after administration relative to 1 h prior to administration", "description": "(§1) The aldosterone- and corticosterone-suppressing activity of herein described compounds may be assessed with the following in vivo protocol.\n(§2) Adult male Wistar rats weighing between 250 and 350 grams are kept under the usual 12 hour light and 12 hour dark conditions at a temperature of 23° C.±2° C. On the first day of the experiment, the animals receive a subcutaneous injection of a depot ACTH product in a dose of 1.0 mg/kg weight (SYNACTHEN-Depot, Novartis, Basel, CH) 16 hours prior to the administration of a test compound. […] An alternative method to stimulate aldosterone secretion consists in subjecting rats to a low salt diet for 48 hours and applying the diuretic furosemide at 10 mg/kg by subcutaneous or intraperitoneal administration 16 hours, respectively 2 hours prior to the start of the experiment. […] The aldosterone and corticosterone concentrations of the plasma samples can be determined with a radioimmunoassay as described above for the in vitro test systems.\n(§3) The selective suppression of plasma steroid levels as for instance aldosterone in comparison to corticosterone may serve as a measure for in vivo bioavailability and pharmacodynamic enzyme inhibitory activity of the herein described compounds. The evaluation of the data may occur relative to the application of vehicle or quantitatively by determination of the area under the curve (AUC). […]"}, "[2]": {"system": "plasma corticosterone", "experiment": "In vivo suppression of plasma corticosterone levels in ACTH-stimulated rats", "set-up": "species or system Wistar rats", "conditions": "4 mg/kg p.o.; plasma level 2 h after administration relative to 1 h prior to administration", "description": "as §1, §2, §3"}}, "data": [{"smiles": "N#Cc1ccc2c(c1)C1(CCC2)OCCn2cncc21", "note": "(centres unmarked) [Example 10, spiro-[(5,6-Dihydro-8H-imidazo[5,1-c][1,4]oxazine)-8,8′-(5′,6′,7′,8′-tetrahydronaphthalene-2′-carbonitrile)]]", "values": [{"measurement": "Aldosterone levels (% change at 2 h)", "setting": "[1]", "result": "−81.7", "unit": "%"}, {"measurement": "Corticosterone levels (% change at 2 h)", "setting": "[2]", "result": "−14.5", "unit": "%"}]}]}
